Reference: patent publication US11564902B2, “Extended duration local anesthetic formulation” (Ventis Pharma, priority 2015, dated 2023)

What was measured:
[1] = cited from earlier work
[2] = powdered form, room temperature; cited from earlier work
[3] = contact with blood; cited from earlier work
[4] = Toxic dose of local anesthetics on intravascular absorption; conditions: inferred from immediate hydrolysis on contact with blood
Text: Short duration local anesthetics are generally used in 1%-2% concentrations. Current applications for short duration local anesthetics are dictated by toxicity; these toxicities vary by drug. […] Intravascular injection or a toxic dosage carries the risk of potential complications such as cardiac arrhythmias or seizures.
Total dose is adjusted to the specific purpose for the local anesthetic administration.

[5] = with or without epinephrine; cited from earlier work
[6] = cited from earlier work; for major nerve block duration: reportedly

| Structure (SMILES) | motor blockade ([1]; 0.2% concentration) | neurotoxicity ([1]; 0.2% concentration) | toxic concentration ([1]; applied directly to nerve structures) | stability [2] | metabolism in blood [3] | actual toxic dose [4] | toxic dose [5] | major nerve block duration [6] | analgesic duration ([6]; transversus abdominis plane (TAP) block, 30-35 ml per side, abdominal procedures) |
| --- | --- | --- | --- | --- | --- | --- | --- | --- | --- |
| CCCCNc1ccc(C(=O)OCCN(C)C)cc1 [tetracaine] | minimal motor blockade | not neurotoxic | 1% | stable at room temperature | immediately metabolized in contact with blood | higher than 5 mg/kg |  |  |  |
| CCCCN1CCCCC1C(=O)Nc1c(C)cccc1C (stereo not shown) [bupivacaine] |  |  |  |  |  |  | 2.5 mg per kg | three to twelve | 12 to 16 h |
| CCCN(CC)C(CC)C(=O)Nc1c(C)cccc1C (stereo not shown) [etidocaine] |  |  |  |  |  |  |  | three to twelve |  |
